The source of these data is patent publication US20090018021A1, “Methyl jasmonate decreases fruit detachment force of grapes” (Regents of the University of California, priority 2006, published 2009).

Data set [1] has as its system Thompson Seedless grapevines. Briefly: Fruit drop (berry abscission) from treated vines, Thompson Seedless experiment. Type of data set: in vivo, grape. The settings on record: for Berry abscission observed in plots: ten days after treatment, all 26 solutions compared; for Percent fruit drop (dry wt/dry wt): 10 days after treatment. Here is the method: (§1) An experiment was conducted in a 40-year-old Thompson Seedless vineyard at the Kearney Agricultural Center in Parlier, California. The site was typical of conventional raisin vineyards, with head-trained, cane-pruned vines on a two-wire T-shaped trellis with a 0.6 m cross arm. The soil was a deep Hanford fine sandy loam.
(§2) The vineyard was divided into plots consisting of vine sections (within-row spaces between two adjacent vine trunks) of uniform appearance and crop load. Each plot was surrounded by guard vines within and between rows. Treatments consisted of 26 different solutions made up of various potential abscission agents (Table 1). Because the concentrations varied widely between agents, each solution was considered a different treatment, and a randomized complete block design was used. All treatments, except for coronatine, were replicated four times. Due to a lack of material, coronatine was only applied to two plots; therefore, data from that treatment were not subjected to statistical analysis though observations were made.
(§3) Composite berry samples were collected weekly to monitor soluble solids accumulation by the fruits. Samples consisted of about 100 berries collected from the top, middle and bottom of about 33 randomly selected clusters. Berries were homogenized in a blender, their juice filtered, and soluble solids measured with a temperature compensating digital refractometer (Palette 101, Atago, Farmingdale, N.Y.). Once the fruits amassed sufficient soluble solids for raisin making (>19 Brix), abscission agents were dissolved or dispersed in water with adjuvant added (0.1%, v/v, Latron B-1956™, Britz, Parlier, Calif.) except MeJA solutions which contained 0.2% adjuvant. Control solutions contained the adjuvant only (0.2% v/v). Immediately after their preparation, solutions were applied to the vines of each plot with a gasoline-powered back-pack sprayer (Solo, Newport News, R.I.) until runoff. Vines within harvest pruned (HP) plots were not treated with any solutions, but their canes were severed on the same day that solutions were applied.
(§4) The soil surface within each plot was covered with ground cloth to collect any berries that might fall from the canopy. […] In those plots and in the control and HP plots, all abscised berries were collected from the ground cloth into paper bags and placed in a forced air oven (60 C) until they reached a constant weight. Clusters of grapes on vines from all the plots were carefully harvested and brought into a laboratory where fruit detachment force (FDF) measurements were made. Any grapes that detached from the vines at harvest were considered to be retained by the vine until harvest. These berries were collected into paper bags and placed in a forced air oven to dry.
(§5) Three representative clusters were selected from all the clusters of each plot and ten rachis sections from the top, middle, and bottom of the three clusters were removed by cutting the rachis with shears. A berry from each section was placed in a jig attached to a force gauge (DPS-11, Imada Inc., Northbrook, Ill.). The rachis was pulled parallel to the fruit axis until it separated from the fruit. The force required to detach each berry from the rachis in grams-force was recorded as the fruit detachment force. The condition of each detached berry was noted, and the berries were placed in paper bags along with all the other berries that were picked from that plot. These berries were also placed in the forced air oven and dried to a constant weight. The proportion of berries that abscised from the vine was calculated on a dry weight basis by dividing the dry weight of the abscised berries in each plot by the combined weight of the retained and abscised berries in that plot. Finally, canopy damage in each plot was inspected visually and assigned a rating of 0 (no obvious foliar damage), 1 (appearance of slight foliar damage), 2 (appearance of moderate foliar damage), or 3 (appearance of severe foliar damage).

In another data set the test system is citrus trees. The note with it: cited from earlier work.
In data set [2] the test system is Thompson Seedless grapevines. Briefly: Fruit detachment force (FDF), Thompson Seedless experiment. Type of data set: in vivo, grape. The settings on record: for FDF: ten days after treatment. How it is done:
as §1, §2, §3, §4, §5

Data set [3] relates to Thompson Seedless grapevines. Briefly: Visual canopy damage rating, Thompson Seedless experiment. The format is in vivo, grape. The note with it: ten days after treatment.
From the text: as §2
Composite berry samples were collected weekly to monitor soluble solids accumulation by the fruits. Samples consisted of about 100 berries collected from the top, middle and bottom of about 33 randomly selected clusters. […] Control solutions contained the adjuvant only (0.2% v/v). Immediately after their preparation, solutions were applied to the vines of each plot with a gasoline-powered back-pack sprayer (Solo, Newport News, R.I.) until runoff. Vines within harvest pruned (HP) plots were not treated with any solutions, but their canes were severed on the same day that solutions were applied.
as §5

Data set [4] relates to Thompson Seedless grapevines. Briefly: Bud break and shoot growth six months after treatment, Thompson Seedless experiment. The format is in vivo, grape. The note with it: 2000 ppm, evaluated six months later. How it is done: Each plot was inspected again six months later when bud break and shoot growth were evaluated. To evaluate bud break, plots received one of the following scores; 0=shoots emerged from 0-20% of nodes; 1=shoots emerged from 20-40% of nodes, 2=shoots emerged from 40-60% of nodes, 3=shoots emerged from 60-80% of nodes, or 4=shoots emerged from 80-100% of nodes. Shoot growth in each plot was also evaluated on a five-point scale, based on the proportion of shoots that had progressed to the five-leaf stage (Eichorn-Lorenz stage 12; Eichorn and Lorenz, Phaenologische Entwicklungsstadien der Rebe. Nachrichtenbl. Deut. Pflanzenschutzd. (Braunschweig) 29:119-120 (1977)).

The test system of a further data set is Crimson Seedless grapes. Briefly: Abscission and fruit detachment force, Crimson Seedless experiment. Type of data set: in vivo, grape. Here is the method:
An experiment was conducted in a fourteen-year-old vineyard of own-rooted Crimson Seedless grapes on an open-gable trellis. Individual clusters of grapes were sprayed to runoff with one of four solutions containing 0, 1125, 2250, or 4500 ppm MeJA and an adjuvant (0.2% v/v, Latron-B 1956). On Day 0, treatments were applied in a randomized, complete block design with clusters as observational units, and vines as blocks. Each spray treatment was applied to 4 replicate clusters. During treatment, clusters were surrounded with plastic shields to protect other clusters from overspray and runoff. The day after treatment, each cluster was enclosed in a plastic mesh bag to collect any berries that might abscise. Clusters were harvested 14 DAT. Ten rachis sections were collected from each cluster and FDF was measured as described previously. The condition of the detached berries was noted, and the berries from each cluster were then separately weighed and homogenized in a blender. Juices were filtered and soluble solids, pH, and titratable acidity of the filtered juices were determined using standard methods.
All data were subjected to analysis of variance using the general linear models procedure (PROC GLM) of SAS statistical software (SAS Inst., Cary, N.C.). Duncan's New Multiple Range Test was used to separate treatment means. […]

The subject of data set [5] is Cabernet Sauvignon grapevines. Briefly: Fruit detachment force and fruit drop, Cabernet Sauvignon. Type of data set: in vivo, grape. The note with it: 4500 ppm, 14 DAT. Here is the method: (§6) An experiment was conducted in a nine-year-old vineyard of own-rooted Cabernet Sauvignon and Merlot grapevines on a vertical two-wire […]. Whole vines were sprayed to runoff on Day 0 with solutions containing 0 or 4500 ppm MeJA and an adjuvant (Latron B-1956; 0.2% v/v) in a completely randomized design replicated four times. On 14 DAT, four representative clusters were collected from each of four vines and ten rachis sections were prepared from each cluster. Fruit detachment force was measured from berries attached to each section, as described previously. Condition of the detached berries was noted, and all the berries from each cluster were counted, weighed, and homogenized in a blender. The juice from each sample was filtered and soluble solids, pH, and titratable acidity of the filtered juices were determined using standard methods. All data were subjected to analysis of variance using the general linear models procedure (PROC GLM) of SAS statistical software (SAS Inst., Cary, N.C.). Duncan's New Multiple Range Test was used to separate treatment means.

The subject of the next data set is Merlot grapevines. Briefly: Fruit detachment force and fruit drop, Merlot. The format is in vivo, grape. The note with it: 4500 ppm, 14 DAT. How it is done:
as §6

The structures appear in SMILES notation. Where “and” joins values, the source holds several entries; their conditions need not be identical. Equal values may be shown once.

For `CC[C@H]1C=C(C(=O)N[C@@]2(C(=O)O)C[C@@H]2CC)[C@H]2CCC(=O)[C@H]2C1` [Coronatine], in data set [1] (200 ppm, two plots only, 10 DAT), the “Fruit drop (observation, not statistically analysed)” value is recorded as “fruit drop appeared similar to that of vines treated with 2250 ppm MeJA”. Also, the “Berry abscission observed in plots” value in data set [1] was “berry abscission was only observed in plots treated with MeJA or coronatine”. Further, the Defoliation expected result in the data set on citrus trees (citrus (Burns et al., 2003)) is recorded as “chlorosis. Expect ~10% defoliation”.
Turning to `Cc1n[nH]c(Cl)c1[N+](=O)[O-]` [CMNP, 5-chloro-3-methyl-4-nitro-1H-pyrazole], the FDF in data set [2] (20 ppm) worked out at 0.244 cd kg; in data set [2] (200 ppm), 0.156 fg·kg; in data set [2] (1000 ppm), 0.161 fg·kg; in data set [2] (2000 ppm), 0.182 ef kg. Further, the “Canopy damage (0-3; none-severe)” value came out at 1.25 cde in data set [3] (20 ppm), 1.25 bcd in data set [3] (200 ppm), 1.75 bc in data set [3] (1000 ppm) and 2.75 a in data set [3] (2000 ppm).
As to `CC1(C)OC[C@@H]2O[C@@]3(C(=O)O)OC(C)(C)O[C@H]3[C@@H]2O1` [Dikegulac], the FDF is listed as 0.291 abc kg in data set [2] (20 ppm), 0.27 ab kg in data set [2] (200 ppm), 0.288 ab kg in data set [2] (1000 ppm) and 0.176 efg kg in data set [2] (2000 ppm). Besides, the “Canopy damage (0-3; none-severe)” value came to 1.00 cd in data set [3] (20 ppm), 1.25 bcd in data set [3] (200 ppm), 0.5 in data set [3] (1000 ppm) and 1.50 bcd in data set [3] (2000 ppm). Moreover, the Appearance of shoots result in data set [4] is “cupped leaves and short internodes”. Moreover, the Leaf loss expected result with citrus trees (citrus, at certain times of the season (Pozo et al, 2004)) is “(Pozo et al, 2004). Expect 15-20%”.
In the case of `NC1(C(=O)O)CC1` [VBC-30069], the FDF is 0.261 cd kg in data set [2] (50 ppm) and 0.266 abcd kg in data set [2] (150 ppm).
For the molecule `CC/C=C\CC1C(=O)CCC1CC(=O)OC` (stereo not drawn) [MeJA, methyl jasmonate], the “Percent fruit drop (dry wt/dry wt)” value in data set [1] (45 ppm) is 0.26 c percent; in data set [1] (450 ppm), 6.37 c percent; in data set [1] (4500 ppm), 50% and 50.71 a percent. Further, in data set [1], the “Berry abscission observed in plots” value is given as “berry abscission was only observed in plots treated with MeJA or coronatine”. Also, the Abscised berries observed entry in data set [1] (within 2 days after treatment, ≧450 ppm (2 mM)) is reported as “abscised berries were observed”. In addition, the FDF was 0.169 fg·kg in data set [2] (45 ppm), 0.124 gh kg in data set [2] (450 ppm), 0.079 hi kg in data set [2] (2250 ppm) and 0.052 i kg in data set [2] (4500 ppm). The “Reduction of FDF compared with cane severance” value in data set [2] (any concentration ≧450 ppm, 10 DAT) was “reduced FDF at least as effectively as cane severance”. Moreover, the “Reduction of FDF compared to non-treated vines” value in data set [2] (lowest concentration tested, 10 DAT) is recorded as “reduced FDF by half”; in data set [5], 66%; with Merlot grapevines, 75%. For the same molecule, the “FDF of berries retained after harvest versus concentration applied” value in the data set with Crimson Seedless grapes (14 DAT, 0-4500 ppm) is listed as “FDF decreased as a linear function of the concentration of MeJA applied”. Further, the “Abscission of grapes from clusters” value in the data set on Crimson Seedless grapes (within 14 DAT, clusters sprayed with 1125, 2250 or 4500 ppm) is listed as “did not abscise from any clusters”. Moreover, the “Fruit drop (appeared, not measured)” value (in data set [5]; with Merlot grapevines) was “less than 10%” in each case. Besides, the “Fruit on treated trees dropped” value in the data set with citrus trees (citrus trees, 2250-4500 ppm, within 10 DAT (Hartmond et al. 2000)) is “about 20%”. Moreover, in the data set on citrus trees (citrus trees, solutions of 2250-4500 ppm (Hartmond et al. 2000)), the “FDF less than fruit from non-treated trees” value is listed as 75-80%.
